From publication PMC10053623, “Water-Soluble Fullerene C60 Derivatives Are Effective Inhibitors of Influenza Virus Replication” (Microorganisms, 2023)

Experiments:
[1] = tested on: Influenza A/Puerto Rico/8/34 (H1N1) virus; test: microbe, parasite or virus in culture; format: cell-based
in vitro = conditions: dog

CCC(CC)O[C@@H]1C=C(C(=O)O)C[C@H](N)[C@H]1NC(C)=O [Oseltamivir carboxylate]
SI, selectivity index, the ratio of CC50 to IC50 [1]: >667 | IC50 ([1]; Influenza A virus, H1N1, MDCK, 72 h, read-out: IC50, inhibitory concentration causing a 50% decrease in virus-induced cell death): 300 ± 20 nM | CC50 at 72 h (in vitro): > 200000 nM
